In PubChem BioAssay (NCI):
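Where inhibition never reached the appropriate level, the endpoint shown equals the highest concentration tested. Otherwise, values were interpolated linearly from a five-concentration, 48-hour dose response in 96-well plates. Here, GI50 denotes the concentration required for 50% inhibition of growth. Definition used: TGI = concentration required for complete inhibition of growth.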

Key:
Experiment in all cases: NCI anticancer screen, dose series, 48 h
[1] = tested on: ACHN renal
[2] = tested on: OVCAR-8 ovarian
[3] = tested on: UACC-62 melanoma
[4] = tested on: IGROV1 ovarian
[5] = tested on: HS 578T breast
[6] = tested on: 786-0 renal
[7] = tested on: BT-549 breast
[8] = tested on: SF-268 CNS
[9] = tested on: KM12 colon
[10] = tested on: SNB-19 CNS
[11] = tested on: MOLT-4 leukemia
[12] = tested on: CAKI-1 renal
[13] = tested on: SF-295 CNS
[14] = tested on: HOP-92 NSCLC
[15] = tested on: MCF7 breast
[16] = tested on: HL-60(TB) leukemia
[17] = tested on: OVCAR-5 ovarian
[18] = tested on: T-47D breast
[19] = tested on: RXF 393 renal
[20] = tested on: NCI-H460 lung
[21] = tested on: EKVX NSCLC
[22] = tested on: CCRF-CEM leukemia
[23] = tested on: NCI-H23 lung
[24] = tested on: LOX IMVI melanoma
[25] = tested on: OVCAR-3 ovarian
[26] = tested on: SN12C renal
[27] = tested on: RPMI-8226 leukemia
[28] = tested on: A549 NSCLC
[29] = tested on: MALME-3M melanoma
[30] = tested on: K-562 leukemia
[31] = tested on: U251 CNS
[32] = tested on: PC-3 prostate
[33] = tested on: MDA-MB-435
[34] = tested on: HT29 colon
[35] = tested on: NCI/ADR-RES ovarian
[36] = tested on: HOP-62 NSCLC
[37] = tested on: UACC-257 melanoma
[38] = tested on: HCC-2998 colon
[39] = tested on: M14 melanoma
[40] = tested on: MDA-MB-231 breast
[41] = tested on: SF-539 CNS
[42] = tested on: SW-620 colon
[43] = tested on: SK-MEL-5 melanoma
[44] = tested on: UO-31 renal
[45] = tested on: OVCAR-4 ovarian
[46] = tested on: SK-OV-3 ovarian
[47] = tested on: NCI-H522 lung
[48] = tested on: HCT-116 colon
[49] = tested on: DU-145 prostate
[50] = tested on: SNB-75 CNS
[51] = tested on: SK-MEL-28 melanoma
[52] = tested on: A498 renal
[53] = tested on: TK-10 renal
[54] = tested on: NCI-H226 lung
[55] = tested on: SR leukemia
[56] = tested on: HCT-15 colon
[57] = tested on: SK-MEL-2 melanoma

## COc1cc(CNC(=O)/C=C/C=C/c2ccc3c(c2)OCO3)ccc1OCc1cn(-c2ccc(Cl)c(Cl)c2)nn1
[1]
  GI50: 504 nM
  TGI: 1770 nM
[2]
  GI50: 2350 nM
  TGI: 8150 nM
[3]
  GI50: 1260 nM
  TGI: 2650 nM
[4]
  GI50: 1520 nM
  TGI: 3750 nM
[5]
  GI50: 2530 nM
  TGI: 8560 nM
[6]
  GI50: 2030 nM
  TGI: 4280 nM
[7]
  GI50: 1830 nM
  TGI: 4460 nM
[8]
  GI50: 2300 nM
  TGI: 7940 nM
[9]
  GI50: 2410 nM
  TGI: 7250 nM
[10]
  GI50: 2500 nM
  TGI: 12400 nM
[11]
  GI50: 738 nM
  TGI: 2670 nM
[12]
  GI50: 1620 nM
  TGI: 3570 nM
[13]
  GI50: 1850 nM
  TGI: 4190 nM
[14]
  GI50: 1480 nM
  TGI: 3390 nM
[15]
  GI50: 889 nM
  TGI: 3230 nM
[16]
  GI50: 2080 nM
  TGI: 5730 nM
[17]
  GI50: 1770 nM
  TGI: 3990 nM
[18]
  GI50: 1170 nM
  TGI: 3490 nM
[19]
  GI50: 1690 nM
  TGI: 3750 nM
[20]
  GI50: 445 nM
  TGI: 1830 nM
[21]
  GI50: 2950 nM
  TGI: 13400 nM
[22]
  GI50: 1440 nM
  TGI: 12600 nM
[23]
  GI50: 588 nM
  TGI: 2340 nM
[24]
  GI50: 1780 nM
  TGI: 3960 nM
[25]
  GI50: 1420 nM
  TGI: 2810 nM
[26]
  GI50: 1820 nM
  TGI: 4930 nM
[27]
  GI50: 2300 nM
  TGI: 8360 nM
[28]
  GI50: 999 nM
  TGI: 4180 nM
[29]
  GI50: 476 nM
  TGI: 1920 nM
[30]
  GI50: 509 nM
  TGI: 3780 nM
[31]
  GI50: 1650 nM
  TGI: 3220 nM
[32]
  GI50: 1480 nM
  TGI: 3470 nM
[33]
  GI50: 2000 nM
  TGI: 4750 nM
[34]
  GI50: 2490 nM
  TGI: 8180 nM
[35]
  GI50: 1420 nM
  TGI: 4930 nM
[36]
  GI50: 1790 nM
  TGI: 3860 nM
[37]
  GI50: 1800 nM
  TGI: 3980 nM
[38]
  GI50: 2100 nM
  TGI: 4740 nM
[39]
  GI50: 982 nM
  TGI: 2390 nM
[40]
  GI50: 1950 nM
  TGI: 5000 nM
[41]
  GI50: 3260 nM
  TGI: 12300 nM
[42]
  GI50: 362 nM
  TGI: 1550 nM
[43]
  GI50: 1770 nM
  TGI: 3690 nM
[44]
  GI50: 3150 nM
  TGI: 13700 nM
[45]
  GI50: 1090 nM
  TGI: 2720 nM
[46]
  GI50: 2540 nM
  TGI: 6570 nM
[47]
  GI50: 1810 nM
  TGI: 5110 nM
[48]
  GI50: 1220 nM
  TGI: 2840 nM
[49]
  GI50: 1450 nM
  TGI: 3160 nM
[50]
  GI50: 1940 nM
  TGI: 5990 nM
[51]
  GI50: 1670 nM
  TGI: 3460 nM
[52]
  GI50: 1570 nM
  TGI: 3220 nM
[53]
  GI50: 2310 nM
  TGI: 7650 nM
[54]
  GI50: 1740 nM
  TGI: 4310 nM
[55]
  GI50: 2800 nM
  TGI: 19100 nM
[56]
  GI50: 519 nM
  TGI: 2500 nM
[57]
  GI50: 1740 nM
  TGI: 3860 nM
